Measurements from the supplement of paper PMC6045584.
± gives the standard deviation of the averaged measurements.

What was measured:
[1] = compound: NS(=O)(=O)OC[C@@H]1C[C@@H](n2ccc3c(N[C@H]4CCc5ccccc54)ncnc32)C[C@@H]1O [MLN-4924]; assay: surviving fraction relative to DMSO-only wells; higher = less growth inhibition; settings: exposure time: 5 days
Outline: (§1)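 In 384-well plates, 250–500 log-phase tumour cells per well were given 24 hours before five days of continuous exposure to inhibitors at 0.5, 1, 5, 10, 50, 100, 500 and 1000 nM. Surviving fraction is luminescence from CellTiter-Glo, normalised to the median of wells containing DMSO alone. Reading took place after 10 minutes at room temperature.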

[2] = compound: O=C(c1cc(Cc2n[nH]c(=O)c3ccccc23)ccc1F)N1CCN(C(=O)C2CC2)CC1 [OLAPARIB]; assay: as above; settings: exposure time: 5 days
Outline: as §1

Test System | surviving fraction ([1]; 0.5 nM) | surviving fraction ([1]; 1 nM) | surviving fraction ([1]; 5 nM) | surviving fraction ([1]; 10 nM) | surviving fraction ([1]; 50 nM) | surviving fraction ([1]; 100 nM) | surviving fraction ([1]; 500 nM) | surviving fraction ([1]; 1000 nM) | surviving fraction ([2]; 0.5 nM) | surviving fraction ([2]; 1 nM) | surviving fraction ([2]; 5 nM) | surviving fraction ([2]; 10 nM) | surviving fraction ([2]; 50 nM) | surviving fraction ([2]; 100 nM) | surviving fraction ([2]; 500 nM) | surviving fraction ([2]; 1000 nM)
MDAMB436 BREAST | 0.946 ± 0.13 | 0.962 ± 0.082 | 0.961 ± 0.097 | 0.952 ± 0.13 | 0.555 ± 0.053 | 0.427 ± 0.037 | 0.272 ± 0.025 | 0.256 ± 0.016 | 0.888 ± 0.1 | 0.878 ± 0.08 | 0.806 ± 0.056 | 0.795 ± 0.039 | 0.651 ± 0.011 | 0.606 ± 0.022 | 0.537 ± 0.022 | 0.469 ± 0.031
MDAMB453 BREAST | 1.1 ± 0.038 | 1.08 ± 0.056 | 1.07 ± 0.07 | 1.1 ± 0.066 | 0.589 ± 0.019 | 0.493 ± 0.034 | 0.363 ± 0.045 | 0.304 ± 0.017 | 0.989 ± 0.063 | 1 ± 0.036 | 0.989 ± 0.07 | 0.964 ± 0.059 | 0.966 ± 0.042 | 0.936 ± 0.018 | 1.03 ± 0.025 | 0.916 ± 0.025
MDAMB468 BREAST | 1.15 ± 0.068 | 1.09 ± 0.062 | 1.13 ± 0.1 | 1.04 ± 0.11 | 0.436 ± 0.0053 | 0.302 ± 0.05 | 0.18 ± 0.0087 | 0.178 ± 0.021 | 0.928 ± 0.045 | 0.907 ± 0.026 | 0.935 ± 0.025 | 0.942 ± 0.029 | 0.861 ± 0.031 | 0.849 ± 0.049 | 0.835 ± 0.04 | 0.595 ± 0.047
MFM223 BREAST | 1.43 ± 0.45 | 1.47 ± 0.56 | 1.33 ± 0.39 | 1.16 ± 0.56 | 0.586 ± 0.066 | 0.42 ± 0.032 | 0.181 ± 0.022 | 0.152 ± 0.062 | 1.13 ± 0.02 | 1.14 ± 0.1 | 1.13 ± 0.041 | 1.09 ± 0.085 | 0.87 ± 0.029 | 0.787 ± 0.037 | 0.748 ± 0.052 | 0.712 ± 0.025
MG63 BONE | 1.03 ± 0.057 | 1.02 ± 0.046 | 1.07 ± 0.042 | 1.13 ± 0.054 | 0.4 ± 0.058 | 0.031 ± 0.0046 | 0.0287 ± 0.005 | 0.0287 ± 0.0023 | 1.03 ± 0.034 | 1.061 ± 0.0049 | 1.06 ± 0.031 | 1.06 ± 0.033 | 1.023 ± 0.001 | 1.024 ± 0.01 | 0.939 ± 0.027 | 0.879 ± 0.019
MHM BONE | 0.973 ± 0.011 | 0.995 ± 0.024 | 1.04 ± 0.035 | 1.09 ± 0.038 | 1.37 ± 0.02 | 1.36 ± 0.015 | 0.39 ± 0.042 | 0.286 ± 0.015 | 1.001 ± 0.0057 | 1.02 ± 0.014 | 1.04 ± 0.022 | 1.02 ± 0.021 | 1.1 ± 0.018 | 1.052 ± 0.0081 | 1.04 ± 0.018 | 1.02 ± 0.028
NCIH441 LUNG | 1.08 ± 0.077 | 1.15 ± 0.099 | 1.11 ± 0.087 | 1.12 ± 0.03 | 1.01 ± 0.051 | 0.846 ± 0.11 | 0.431 ± 0.033 | 0.414 ± 0.022 | 1.02 ± 0.14 | 1.11 ± 0.052 | 0.998 ± 0.034 | 1.06 ± 0.068 | 1.02 ± 0.042 | 0.98 ± 0.037 | 0.98 ± 0.064 | 1.01 ± 0.042
NOS1 BONE | 0.988 ± 0.11 | 1.02 ± 0.11 | 1.23 ± 0.23 | 1.29 ± 0.21 | 1.22 ± 0.1 | 1.04 ± 0.14 | 0.637 ± 0.083 | 0.506 ± 0.033 | 1.09 ± 0.13 | 0.985 ± 0.096 | 0.981 ± 0.063 | 0.999 ± 0.079 | 0.828 ± 0.062 | 0.773 ± 0.049 | 0.553 ± 0.065 | 0.521 ± 0.071
NY BONE | 1.05 ± 0.024 | 1.03 ± 0.02 | 1.18 ± 0.036 | 1.2 ± 0.04 | 0.82 ± 0.073 | 0.48 ± 0.0085 | 0.289 ± 0.0061 | 0.232 ± 0.0095 | 1.01 ± 0.016 | 1.03 ± 0.013 | 1.05 ± 0.039 | 1.05 ± 0.061 | 1.09 ± 0.031 | 1.06 ± 0.055 | 0.95 ± 0.022 | 0.849 ± 0.04
OS25HAL BONE | 1.05 ± 0.029 | 1.05 ± 0.017 | 1.11 ± 0.034 | 0.982 ± 0.02 | 0.773 ± 0.041 | 0.533 ± 0.06 | 0.181 ± 0.01 | 0.102 ± 0.016 | 1.01 ± 0.015 | 1.01 ± 0.033 | 1.04 ± 0.015 | 1.02 ± 0.025 | 1.05 ± 0.019 | 1.01 ± 0.017 | 1.005 ± 0.0085 | 0.99 ± 0.012
OSHN BONE | 1.09 ± 0.016 | 1.079 ± 0.01 | 1.15 ± 0.026 | 1.087 ± 0.0023 | 0.733 ± 0.018 | 0.565 ± 0.045 | 0.274 ± 0.028 | 0.258 ± 0.054 | 1.06 ± 0.021 | 1.05 ± 0.023 | 1.07 ± 0.032 | 1.04 ± 0.023 | 1.003 ± 0.01 | 0.984 ± 0.011 | 0.984 ± 0.017 | 0.917 ± 0.013
PCI30 HEADNECK | 1.01 ± 0.028 | 1.01 ± 0.072 | 1.04 ± 0.023 | 0.939 ± 0.027 | 0.724 ± 0.028 | 0.701 ± 0.056 | 0.414 ± 0.015 | 0.377 ± 0.019 | 0.973 ± 0.043 | 0.969 ± 0.12 | 1.03 ± 0.016 | 1.02 ± 0.095 | 0.98 ± 0.069 | 0.92 ± 0.052 | 0.856 ± 0.057 | 0.744 ± 0.05
RDES SOFT TISSUE | 1.24 ± 0.12 | 1.11 ± 0.22 | 1.29 ± 0.17 | 1.26 ± 0.081 | 0.952 ± 0.018 | 0.687 ± 0.067 | 0.0467 ± 0.0025 | 0.0413 ± 0.0021 | 1.16 ± 0.19 | 1.11 ± 0.23 | 1.14 ± 0.15 | 0.966 ± 0.14 | 0.85 ± 0.14 | 0.8 ± 0.093 | 1.01 ± 0.065 | 1.41 ± 0.088
S68 BREAST | 0.837 ± 0.21 | 0.964 ± 0.11 | 0.764 ± 0.18 | 1.07 ± 0.19 | 0.6 ± 0.074 | 0.326 ± 0.05 | 0.172 ± 0.024 | 0.105 ± 0.007 | 0.986 ± 0.17 | 0.927 ± 0.014 | 0.925 ± 0.23 | 0.896 ± 0.16 | 0.941 ± 0.084 | 0.771 ± 0.26 | 0.715 ± 0.15 | 0.612 ± 0.097
SAOS2 BONE | 1.14 ± 0.096 | 1.1 ± 0.082 | 1.13 ± 0.057 | 1.1 ± 0.069 | 0.313 ± 0.03 | 0.095 ± 0.0095 | 0.038 ± 0.0017 | 0.0377 ± 0.0015 | 1.078 ± 0.0052 | 1.02 ± 0.022 | 1.16 ± 0.072 | 1.07 ± 0.042 | 0.882 ± 0.021 | 0.8217 ± 0.0046 | 0.753 ± 0.013 | 0.692 ± 0.027
SCC003 HEADNECK | 1.14 ± 0.039 | 1.1 ± 0.016 | 1.11 ± 0.028 | 1.11 ± 0.048 | 1.11 ± 0.14 | 0.988 ± 0.041 | 0.526 ± 0.037 | 0.375 ± 0.037 | 1.14 ± 0.066 | 1.03 ± 0.079 | 1.01 ± 0.072 | 1.09 ± 0.11 | 1.13 ± 0.052 | 1 ± 0.046 | 0.974 ± 0.12 | 0.881 ± 0.083
